Experimental data: article PMC8252180, “In vitro anti-Toxoplasma gondii efficacy of synthesised benzyltriazole derivatives” (The Onderstepoort Journal of Veterinary Research, 2021)
In brackets after ≈: the same amount, converted by molar mass. Where two headings read alike, the source gives them in different places.

Tests used:
Toxoplasma gondii RH-GFP = assay: In vitro growth inhibition assay (RH-GFP fluorescence in infected HFF cells); type: cell-based; conditions: for inhibition at 50 µg/mL / IC50: Toxoplasma gondii; for inhibition at 50 µg/mL: HFF, read-out: % Parasite inhibition (mean ± s.d.); for IC50: read-out: IC50 (anti-toxoplasmosis activity)
Description: Briefly, HFF cells were seeded into 96-well plates (1 × 10^4 cells/well) and cultured for 48 h. Expressing green fluorescent protein (GFP) type I strain RH (RH-GFP) tachyzoites (Nishikawa et al. [2003]) were added to the wells (5 × 10^4 tachyzoites/well). After a 4-h incubation, extracellular parasites were removed by washing. Then, chemical compounds at a final concentration of 50 µg/mL were added. […] After a 72-h incubation, the fluorescence intensity of RH-GFP was measured to determine the parasite growth. Compounds with parasite inhibition ≥ 80% were further screened for dose–response effects at final concentrations of 3.125 µg/mL, 6.25 µg/mL, 12.5 µg/mL, 25 µg/mL and 50 µg/mL.

[1] = Cytotoxicity analysis on HFF cells (CCK-8); type: cell-based, human; conditions: human, human foreskin fibroblasts (HFF) cells; test compounds at 50 µg/mL
Description: (§1) The cytotoxicity of the chemical compounds on human foreskin fibroblasts (HFF) cells was determined by using the cell counting kit-8 (CCK-8) (Dojindo Molecular Technologies, Inc. Japan) according to the manufacturer’s instructions. The compounds were dissolved in dimethyl sulfoxide (DMSO). HFF cells were plated in 96-well plates at a density of 1 × 10^4 cells per well. After a 48-h incubation at 37 °C in a 5% CO2 atmosphere, cells were exposed to various concentrations of tested chemical compounds (1 µg/mL, 5 µg/mL, 10 µg/mL, 25 µg/mL, 50 µg/mL and 100 µg/mL). Culture medium containing the same volume of DMSO was used as a negative control. After 24 h, the surviving cells were determined by adding CCK-8 reagent. Cell viability was measured based on the absorbance at 450 nm after an additional 4-h incubation.

Vero cell viability = type: cell-based; conditions: African green monkey, Vero cells; test compounds at 100 µg/mL
Text: (§2) TABLE 2 Screening of chemical compounds for anti-RH-GFP efficacy. | column: % viability Vero ^¶

[2] = tested on: human foreskin fibroblasts (HFF) cells; assay: Cytotoxicity analysis on HFF cells (CCK-8); type: cell-based; conditions: for Effect on host cell viability / growth: HFF cells, 0-100 µg/mL, 24 h
Description: as §1

[3] = tested on: Toxoplasma gondii RH-GFP tachyzoites; type: cell-based; conditions: for Activity against extracellular and intracellular parasites: invasion and replication tests, FJS-302 10 µg/mL, FJS-303 and FJS-403 12.5 µg/mL, SFZ 1 mg/mL; for Infection rate (SAG1-positive Vero cells per 100 Vero cells): non-treated 11.3% ± 0.6%
Description: Vero cells were seeded on 12-well plates as described here, and purified RH-GFP tachyzoites were treated with FJS-302, FJS-303, FJS-403 or FJS-INH for 1 h at 37 °C. Then treated parasites were added to Vero cells in a 12-well plate (2 × 10^5 tachyzoites per well). At 2 h postinfection, the extracellular parasites were removed by washing, and the infected Vero cells were further incubated for 24 h at 37 °C in a 5% CO2 incubator. After incubation, IFAT was conducted as described here to evaluate the effects of the chemical compounds on parasite invasion. The infection rates were calculated as follows: [number of SAG1-positive Vero cells]/[100 randomly selected Vero cells]×100 [Eqn 1]
In addition, at least 10 fields were observed per group to measure the average number of parasites per field.

[4] = tested on: Toxoplasma gondii PruΔku80Δhxgprt; assay: Bradyzoite differentiation assay (Vero cells, IFAT); type: cell-based; conditions: 48 h; for Antitachyzoite activity: PruΔku80Δhxgprt; for Bradyzoite number: compounds 50 µg/mL (Figure 4 legend)
Description: Vero cells were plated in 12-well plates at a density of 1 × 10^5 cells per well and incubated for 24 h at 37 °C in a 5% CO2 atmosphere. Then, purified PruΔku80Δhxgprt tachyzoites were added to Vero cells at 1 mL/well (parasites per host cell ratio = 1:1). Two hours postinfection, chemical compounds were added in EMEM supplemented with 8% FBS. Indirect fluorescent antibody test was conducted after a 48-h incubation. Tachyzoites were stained by using anti-SAG1 mouse polyclonal antibody (Guo et al. [2019]), and bradyzoites were detected by using anti-GFP rabbit polyclonal antibody (Medical & Biological Laboratories CO., LDT, Japan). Secondary antibody Alexa Fluor 594-conjugated goat anti-mouse IgG (Invitrogen, United States) diluted 1:1000 and Alexa Fluor 488-conjugated goat anti-Rabbit IgG (Invitrogen, United States) diluted 1:1000 were used. Five fields per well were observed by using an All-in-one Fluorescence Microscope (BZ-9000, Keyence, Japan), and the percentage of bradyzoites was calculated.

Vero cells = assay: Vero cell viability; type: cell-based; conditions: sulphadiazine at 1 mg/mL
Text: as §2

[5] = tested on: Toxoplasma gondii RH strain; conditions: ref De Oliveira et al. [2009]; cited from earlier work
HFF cells = conditions: 200 µg/mL of SFZ; ref De Oliveira et al. [2009]; cited from earlier work
[6] = 72 h, test compounds at 50 µg/mL, 72 h, RH-GFP-infected HFF cells
[7] = RH-GFP-infected HFF cells, 72 h, 3.125-50 µg/mL
[8] = test compounds at 50 µg/mL, 72 h, RH-GFP-infected HFF cells
[9] = parasites pretreated with 12.5 µg/mL
[10] = parasites pretreated with 12.5 µg/mL for 1 h

Row | SMILES | inhibition at 50 µg/mL (Toxoplasma gondii RH-GFP; [6]) | viability at 24 h, 50 µg/mL [1] | viability at 100 µg/mL (Vero cell viability) | IC50 (Toxoplasma gondii RH-GFP; [7]) | % Parasite inhibition (mean ± s.d.) (Toxoplasma gondii RH-GFP; [8]) | Effect on host cell viability / growth [2] | Activity against extracellular and intracellular parasites [3] | Antitachyzoite activity [4] | also measured
1 | CCCCCCCCCCc1cn(Cc2ccc(Br)cc2)nn1 [FJS-104] | 62.2 ± 6% | 100% | 103% |  |  |  |  |  | 
2 | Brc1ccc(Cn2cc(CSc3ccccc3)nn2)cc1 [FJS-105] | 60.5 ± 6.1% | 100% | 103% |  |  |  |  |  | 
3 | CCCCc1cn(Cc2ccccc2)nn1 [FJS-201] | 64.6 ± 6.8% | 100% | 99.3% |  |  |  |  |  | 
4 | c1ccc(Cn2cc(CSc3ccccc3)nn2)cc1 [FJS-205] | 60.2 ± 5.1% | 100% | 101% |  |  |  |  |  | 
5 | CCCCc1cn(Cc2ccc(C)cc2)nn1 [FJS-301] | 57.7 ± 3% | 96.2% | 85.4% |  |  |  |  |  | 
6 | CCCCCCc1cn(Cc2ccc(C)cc2)nn1 [FJS-302] | > 80% | 85% | 86.1% | 5.6 µg/mL (≈ 21.8 µM) | 95.9 ± 4.6% | no significant suppression on host cell growth | effective against extra- and intracellular parasites | significant antitachyzoite activity | Number of parasites per field after pretreatment ([3]; parasites pretreated with 10 µg/mL): significantly reduced; Infection rate (SAG1-positive Vero cells per 100 Vero cells) ([3]; parasites pretreated with 10 µg/mL for 1 h): 6.2% ± 0.5%; Bradyzoite number [4]: did not increase the bradyzoite number
7 | CCCCCCCCc1cn(Cc2ccc(C)cc2)nn1 [FJS-303] | > 80% | 110% | 101% | 6.8 µg/mL (≈ 23.8 µM) | 96.3 ± 3.9% | no significant suppression on host cell growth | effective against extra- and intracellular parasites | significant antitachyzoite activity | Number of parasites per field after pretreatment [3, 9]: significantly reduced; Infection rate (SAG1-positive Vero cells per 100 Vero cells) [3, 10]: 5.8% ± 0.5%; Bradyzoite number [4]: did not increase the bradyzoite number
8 | CCCCCCCCc1cn(Cc2ccc(C(F)(F)F)cc2)nn1 [FJS-403] | > 80% | 103% | 102% | 7 µg/mL (≈ 20.6 µM) | 91.5 ± 1.7% | no significant suppression on host cell growth | effective against extra- and intracellular parasites | significant antitachyzoite activity | Number of parasites per field after pretreatment [3, 9]: significantly reduced; Infection rate (SAG1-positive Vero cells per 100 Vero cells) [3, 10]: 5.2% ± 0.7%; Bradyzoite number [4]: did not increase the bradyzoite number
9 | CCCCCCCCCCc1cn(Cc2ccc(C(F)(F)F)cc2)nn1 [FJS-404] | 64.5 ± 1.8% | 100% |  |  |  |  |  |  | 
10 | FC(F)(F)c1ccc(Cn2cc(CSc3ccccc3)nn2)cc1 [FJS-405] | 35 ± 5% | 100% | 103% |  |  |  |  |  | 
11 | NNC(=O)c1ccncc1 [FJS-INH, isoniazid, reference compound] | > 80% | 118% | 98% | 19.8 µg/mL (≈ 144 µM) | 87.2 ± 4.6% | no significant suppression on host cell growth |  | significant antitachyzoite activity | Potency relative to the leading BnTz derivative (Toxoplasma gondii RH-GFP; T. gondii growth inhibition, from IC50): threefold less potent; Infection rate (SAG1-positive Vero cells per 100 Vero cells) ([3]; parasites pretreated with 50 µg/mL for 1 h): 10.7% ± 0.5%
12 | Nc1ccc(S(=O)(=O)Nc2ncccn2)cc1 [SFZ, sulphadiazine, reference compound] |  |  |  |  |  |  | affected only intracellular parasite |  | IC50 (anti-toxoplasmosis activity) (Toxoplasma gondii RH-GFP; [7]): 59.5 µg/mL (≈ 238 µM); % Parasite inhibition (mean ± s.d.) (Toxoplasma gondii RH-GFP; sulphadiazine at 1 mg/mL, 72 h, RH-GFP-infected HFF cells): 73.7 ± 4.6%; % viability HFF ([2]; sulphadiazine at 1 mg/mL): 105.19%; % viability Vero (Vero cells): 92.11%; Infection rate (SAG1-positive Vero cells per 100 Vero cells) ([3]; parasites pretreated with 1 mg/mL for 1 h): 11.7% ± 1.3%; Bradyzoite number (GFP-positive parasitophorous vacuoles per field) ([4]; SFZ 1 mg/mL, no treatment 6.5 ± 1.5): 23.7 ± 6.0; Bradyzoite rate (bradyzoite differentiation) ([4]; SFZ 1 mg/mL, no treatment 8.2% ± 1.9%): 46.6% ± 7.9%; IC50 of SFZ on RH strain [5]: 70 µg/mL; Decrease of viability of HFF cells (HFF cells): 28%
